Among the data in PubChem BioAssay (NCI) are TGI values, retold here.

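Following 48 hours of exposure in 96-well plates, responses at five concentrations were used to interpolate endpoints linearly. The concentration for full growth arrest is given as TGI.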

Some test systems named below: EKVX NSCLC; A498 renal; OVCAR-5 ovarian; MCF7 breast; HOP-62 NSCLC; OVCAR-3 ovarian; T-47D breast; HCT-15 colon; MDA-N.
What all share (experiment): DTP human tumour cell line panel, 48 h

Take `O=c1[nH]nc(-c2ccccc2)n1/N=C/c1cccc([N+](=O)[O-])c1`: the total growth inhibition concentration (TGI) with EKVX NSCLC, with A498 renal, in the assay on OVCAR-5 ovarian, with MCF7 breast, with HOP-62 NSCLC and with OVCAR-3 ovarian was more than 100 µM each time. Also, the total growth inhibition concentration (TGI) in the assay with T-47D breast and in the assay on HCT-15 colon was more than 100 µM throughout.

With `COc1c2c(nc3ccccc13)-c1cc(C(CC(=O)OC(C)(C)C)C(=O)OC(C)C)c(CO)c(=O)n1C2` (stereo unspecified), the concentration for total growth inhibition (TGI) in the assay with EKVX NSCLC was more than 100 µM; with MDA-N it was more than 100 µM; in the assay with A498 renal, more than 100 µM; in the assay with OVCAR-5 ovarian, more than 100 µM; in the assay with MCF7 breast, 19.3 µM; with HOP-62 NSCLC, more than 100 µM. Further, the TGI in the assay with OVCAR-3 ovarian, in the assay with T-47D breast and with HCT-15 colon was more than 100 µM each time.

Regarding `O=C1CCCC/C1=C\c1ccc([N+](=O)[O-])cc1`, the TGI with EKVX NSCLC is more than 100 µM; in the assay on MDA-N it was 41.5 µM; in the assay on OVCAR-5 ovarian it was more than 100 µM; in the assay on MCF7 breast, 37.4 µM; with HOP-62 NSCLC, 29 µM; in the assay on OVCAR-3 ovarian, 83.5 µM. Moreover, in the assay with T-47D breast, the concentration for total growth inhibition (TGI) worked out at 65.3 µM.

Regarding `Cn1c(=Nc2ccc(Cl)cc2)sc2ccccc21`, the total growth inhibition concentration (TGI) with EKVX NSCLC was more than 100 µM; with A498 renal, more than 100 µM; in the assay with OVCAR-5 ovarian, more than 100 µM; with HOP-62 NSCLC it was more than 100 µM; in the assay on T-47D breast, more than 100 µM; in the assay on HCT-15 colon, 65.7 µM.

Turning to `COc1ccc2cc(CNCCCCCCCCNCc3ccc4cc(OC)ccc4c3)ccc2c1`, the total growth inhibition concentration (TGI) with A498 renal is 9.68 µM; with OVCAR-5 ovarian, 10.1 µM; with MCF7 breast, more than 100 µM; in the assay on HOP-62 NSCLC, 10.2 µM; in the assay with OVCAR-3 ovarian, 9.86 µM; in the assay on T-47D breast, 91 µM. This compound showed a concentration for total growth inhibition (TGI) in the assay on HCT-15 colon of more than 100 µM.

`c1ccc2cc3c(NC4=NCCO4)cccc3cc2c1`: the TGI in the assay on EKVX NSCLC was more than 100 µM; with MDA-N it was 3.57 µM; with A498 renal, more than 100 µM; in the assay on OVCAR-5 ovarian, more than 100 µM; in the assay with MCF7 breast, more than 100 µM; in the assay with HOP-62 NSCLC it was more than 100 µM. The concentration for total growth inhibition (TGI) in the assay on OVCAR-3 ovarian and in the assay with HCT-15 colon was more than 100 µM throughout.

Regarding `COc1ccc(-c2oc3cc(OC)c(OC)c(O)c3c(=O)c2OC)cc1`, the TGI with EKVX NSCLC, in the assay on MDA-N, with OVCAR-5 ovarian, in the assay on MCF7 breast, with HOP-62 NSCLC and with T-47D breast was more than 100 µM throughout. This compound also yielded a TGI in the assay with HCT-15 colon of more than 100 µM.

Regarding `Nc1ccccc1C#CC(=O)c1cccc(C(F)(F)F)c1`, the total growth inhibition concentration (TGI) in the assay with EKVX NSCLC turned out to be 38 µM; in the assay with MDA-N it was 10.6 µM; in the assay with A498 renal, 32.5 µM; in the assay with OVCAR-5 ovarian, 23.7 µM; in the assay on MCF7 breast, 9.91 µM; in the assay with HOP-62 NSCLC, 27.9 µM. In addition, the TGI is 14.7 µM in the assay with OVCAR-3 ovarian and more than 100 µM in the assay with T-47D breast.

With `O=c1[nH]ncc2[nH]c3c4ccccc4ccc3c12`, the concentration for total growth inhibition (TGI) in the assay with EKVX NSCLC was more than 100 µM; with MDA-N, more than 100 µM; with OVCAR-5 ovarian it was more than 100 µM; with MCF7 breast, 54.9 µM; in the assay on HOP-62 NSCLC, more than 100 µM; with OVCAR-3 ovarian it was more than 100 µM. For the same compound, the concentration for total growth inhibition (TGI) is more than 100 µM in the assay on T-47D breast and 39.6 µM with HCT-15 colon.

In the case of `O=C(N=Nc1ccc(Cl)cc1Cl)NNc1ccc(Cl)cc1Cl`, the total growth inhibition concentration (TGI) was 35.1 µM in the assay with MDA-N; 33.1 µM with A498 renal; 44 µM in the assay with OVCAR-5 ovarian; 18.6 µM in the assay with HOP-62 NSCLC; 33.6 µM with OVCAR-3 ovarian; 77.3 µM in the assay with T-47D breast. In addition, the TGI in the assay with HCT-15 colon came out at 46.8 µM.

For the compound `O=C(c1cccs1)c1nccc2c1cnc1ccccc12`, the TGI was more than 100 µM in the assay on EKVX NSCLC; more than 100 µM in the assay with A498 renal; more than 100 µM with OVCAR-5 ovarian; 72.5 µM in the assay with MCF7 breast; more than 100 µM in the assay on HOP-62 NSCLC; more than 100 µM with OVCAR-3 ovarian. Moreover, the total growth inhibition concentration (TGI) in the assay with T-47D breast and in the assay with HCT-15 colon was more than 100 µM in each case.

With `CC1(C)OCC(C2OC3OC(C)(C)OC3C2c2ccccc2)O1` (stereo unspecified), the total growth inhibition concentration (TGI) in the assay with EKVX NSCLC was more than 100 µM; in the assay with MDA-N, more than 100 µM; with OVCAR-5 ovarian, more than 100 µM; in the assay on MCF7 breast, more than 100 µM; in the assay on HOP-62 NSCLC it was more than 100 µM; in the assay with OVCAR-3 ovarian it was 91.7 µM. Also, the TGI in the assay with T-47D breast and with HCT-15 colon was more than 100 µM in each case.

With `N#Cc1c(=O)c2ccccc2n2ccccc12`, the TGI in the assay on MDA-N, in the assay with A498 renal, in the assay with T-47D breast and in the assay with HCT-15 colon was more than 100 µM in each case.

Regarding `Cc1ccc(S(=O)C[C@](NC(=O)OCc2ccccc2)(Sc2ccccc2)C(F)F)cc1` (stereo partly specified), the TGI with EKVX NSCLC is 29.3 µM; with A498 renal it was 29.7 µM; in the assay on OVCAR-5 ovarian, 63.9 µM; in the assay with HOP-62 NSCLC, 86.9 µM; in the assay with OVCAR-3 ovarian, 66.1 µM; with T-47D breast, 40 µM. In the assay with HCT-15 colon, this compound yielded a TGI of 40.3 µM.

Take `CCOC(=O)c1cn2c(n1)sc1cc(OC)ccc12`: the TGI is more than 100 µM with EKVX NSCLC; more than 22.6 µM in the assay on MDA-N; more than 100 µM with A498 renal; more than 100 µM in the assay on OVCAR-5 ovarian; more than 100 µM in the assay with MCF7 breast; more than 100 µM in the assay on HOP-62 NSCLC. Besides, the figures for the TGI in the assay on OVCAR-3 ovarian and in the assay on HCT-15 colon were more than 44.8 µM and more than 55.3 µM, respectively.

For the compound `O=C(N/N=C\c1cccc2ccccc12)Nc1ccccc1`, the TGI in the assay on MDA-N, in the assay on A498 renal, in the assay with OVCAR-5 ovarian, in the assay on MCF7 breast, with HOP-62 NSCLC and in the assay on OVCAR-3 ovarian was more than 100 µM throughout. Further, the concentration for total growth inhibition (TGI) in the assay on T-47D breast and in the assay with HCT-15 colon was more than 100 µM each time.

On to `CC1(C)CC(=O)c2c(nc3c(ccc4ccccc43)c2-c2ccc(NC(=O)CCC(=O)Nc3ccc(-c4c5c(nc6c4ccc4ccccc46)CC(C)(C)CC5=O)cc3)cc2)C1`, for which the concentration for total growth inhibition (TGI) with EKVX NSCLC, in the assay with MDA-N, with OVCAR-5 ovarian, with MCF7 breast, with HOP-62 NSCLC and with OVCAR-3 ovarian was more than 100 µM in each case. Also, the TGI in the assay on T-47D breast and in the assay with HCT-15 colon was more than 100 µM in each case.
